Assay results published in the NIST ThermoML archive (doi:10.1021/acs.jced.6b00526).

Assay: xn = mol fraction of the nth substance listed
Settings: 100 kPa, Liquid; for mass density: Vibrating tube method; for viscosity: Falling or rolling sphere viscometry

OCCCCO [1,4-butanediol] + O
Settings | mass density, 288.15 K [kg/m3] | mass density, 293.15 K [kg/m3] | mass density, 298.15 K [kg/m3] | mass density, 303.15 K [kg/m3] | mass density, 308.15 K [kg/m3] | mass density, 313.15 K [kg/m3] | mass density, 318.15 K [kg/m3] | viscosity, 293.15 K [mPa·s] | viscosity, 298.15 K [mPa·s] | viscosity, 303.15 K [mPa·s]
x2 = 0 | 1018.6 | 1016.3 | 1012.9 | 1009.9 | 1006.9 | 1003.2 | 1000.8 | 90.7 | 69.89 | 55.24
x2 = 0.0992 | 1020.8 | 1018.3 | 1014.8 | 1011.8 | 1008.9 | 1005.2 | 1002.6 | – | – | –
x2 = 0.1257 | – | – | – | – | – | – | – | 75.28 | 57.95 | 45.05
x2 = 0.152 | 1021.8 | 1019.3 | 1015.8 | 1012.8 | 1009.8 | 1006.1 | 1003.4 | – | – | –
x2 = 0.2039 | 1022.8 | 1020.3 | 1016.7 | 1013.7 | 1010.6 | 1006.9 | 1004.2 | – | – | –
x2 = 0.2513 | 1023.6 | 1021.1 | 1017.6 | 1014.5 | 1011.4 | 1007.6 | 1004.9 | – | – | –
x2 = 0.2783 | – | – | – | – | – | – | – | 58.11 | 44.52 | 33.59
x2 = 0.3003 | 1024.5 | 1021.9 | 1018.3 | 1015.2 | 1012.1 | 1008.3 | 1005.6 | – | – | –
x2 = 0.3033 | – | – | – | – | – | – | – | 54.65 | 42 | 31.63
x2 = 0.3534 | 1025.3 | 1022.7 | 1019.1 | 1015.9 | 1012.8 | 1009 | 1006.3 | – | – | –
x2 = 0.4009 | – | – | – | – | – | – | – | 44.04 | 33.94 | 25.07
x2 = 0.4399 | 1026.2 | 1023.6 | 1020 | 1016.8 | 1013.6 | 1009.8 | 1007.1 | – | – | –
x2 = 0.4482 | 1026.6 | 1024 | 1020.3 | 1017.1 | 1013.9 | 1010.1 | 1007.3 | – | – | –
x2 = 0.5008 | – | – | – | – | – | – | – | 33.85 | 25.34 | 18.65
x2 = 0.5011 | 1027.2 | 1024.5 | 1020.8 | 1017.7 | 1014.5 | 1010.6 | 1007.8 | – | – | –
x2 = 0.5515 | 1027.6 | 1025 | 1021.1 | 1017.9 | 1014.8 | 1010.9 | 1008.1 | – | – | –
x2 = 0.6114 | 1027.7 | 1025.1 | 1021.3 | 1018.2 | 1015.1 | 1011.2 | 1008.3 | – | – | –
x2 = 0.6527 | 1027.6 | 1025 | 1021.3 | 1018.1 | 1015.1 | 1011.2 | 1008.4 | – | – | –
x2 = 0.6662 | – | – | – | – | – | – | – | 19.58 | 13.9 | 10.11
x2 = 0.7003 | – | – | – | – | – | – | – | 16.6 | 11.57 | 8.774
x2 = 0.7005 | 1027.2 | 1024.5 | 1021 | 1017.8 | 1014.8 | 1011 | 1008.3 | – | – | –
x2 = 0.7501 | 1026.3 | 1023.6 | 1020.1 | 1016.9 | 1013.9 | 1010.3 | 1007.4 | – | – | –
x2 = 0.7998 | 1024.2 | 1021.5 | 1018.3 | 1015.3 | 1012.5 | 1008.9 | 1006.2 | – | – | –
x2 = 0.8013 | – | – | – | – | – | – | – | 9.634 | 6.814 | 5.035
x2 = 0.8492 | 1021.3 | 1018.9 | 1015.8 | 1012.9 | 1010.2 | 1007.1 | 1004 | – | – | –
x2 = 0.8979 | – | – | – | – | – | – | – | 4.127 | 3.267 | 2.369
x2 = 0.9001 | 1015.9 | 1014.1 | 1011.7 | 1009.2 | 1006.7 | 1003.6 | 1000.9 | – | – | –
x2 = 0.9488 | 1008.1 | 1006.7 | 1004.7 | 1003.3 | 1001.1 | 998.7 | 996.2 | – | – | –

OCCCCCO [1,5-pentanediol] + O
Settings | mass density, 288.15 K [kg/m3] | mass density, 293.15 K [kg/m3] | mass density, 298.15 K [kg/m3] | mass density, 303.15 K [kg/m3] | mass density, 308.15 K [kg/m3] | mass density, 313.15 K [kg/m3] | mass density, 318.15 K [kg/m3] | viscosity, 293.15 K [mPa·s] | viscosity, 298.15 K [mPa·s] | viscosity, 303.15 K [mPa·s]
x2 = 0 | 992.2 | 989.2 | 986.2 | 983.2 | 980.3 | 977.4 | 974.8 | 118.7 | 86.79 | 68.3
x2 = 0.1326 | 995.2 | 992.1 | 989 | 985.9 | 982.9 | 979.9 | 977.3 | – | – | –
x2 = 0.2201 | 997 | 993.9 | 990.8 | 987.7 | 984.7 | 981.7 | 979 | – | – | –
x2 = 0.2345 | 997.3 | 994.2 | 991 | 988 | 985 | 982 | 979.3 | – | – | –
x2 = 0.2586 | – | – | – | – | – | – | – | 92.52 | 70.36 | 54.61
x2 = 0.3 | – | – | – | – | – | – | – | 85.43 | 65.59 | 51.03
x2 = 0.3001 | 998.6 | 995.5 | 992.4 | 989.3 | 986.3 | 983.3 | 980.6 | – | – | –
x2 = 0.406 | 1000.7 | 997.6 | 994.5 | 991.4 | 988.5 | 985.5 | 982.8 | – | – | –
x2 = 0.4864 | – | – | – | – | – | – | – | 51.43 | 39.51 | 31
x2 = 0.4969 | 1002.6 | 999.5 | 996.4 | 993.4 | 990.5 | 987.6 | 985 | 49.66 | 38.56 | 30.24
x2 = 0.5262 | 1003.2 | 1000.2 | 997.1 | 994.1 | 991.2 | 988.3 | 985.7 | – | – | –
x2 = 0.5488 | 1003.7 | 1000.7 | 997.7 | 994.7 | 991.8 | 988.9 | 986.3 | – | – | –
x2 = 0.6032 | 1004.8 | 1001.9 | 998.9 | 996 | 993.1 | 990.2 | 987.6 | – | – | –
x2 = 0.6777 | – | – | – | – | – | – | – | 25.01 | 19.75 | 15.78
x2 = 0.7012 | 1006.6 | 1003.8 | 1000.9 | 998 | 995.2 | 992.3 | 989.8 | – | – | –
x2 = 0.7611 | – | – | – | – | – | – | – | 16.1 | 12.71 | 10.16
x2 = 0.7745 | 1007.1 | 1004.6 | 1001.9 | 999.1 | 996.4 | 993.7 | 991.2 | – | – | –
x2 = 0.8051 | 1007 | 1004.6 | 1002.1 | 999.5 | 996.7 | 994.1 | 991.6 | – | – | –
x2 = 0.8474 | – | – | – | – | – | – | – | 8.205 | 6.627 | 5.439
x2 = 0.8998 | 1005.3 | 1003.2 | 1000.9 | 998.6 | 996.3 | 993.9 | 992 | – | – | –
x2 = 0.9205 | – | – | – | – | – | – | – | 3.733 | 3.103 | 2.615

OCCCO [propan-1,3-diol] + O
Settings | mass density, 288.15 K [kg/m3] | mass density, 293.15 K [kg/m3] | mass density, 298.15 K [kg/m3] | mass density, 303.15 K [kg/m3] | mass density, 308.15 K [kg/m3] | mass density, 313.15 K [kg/m3] | mass density, 318.15 K [kg/m3] | viscosity, 293.15 K [mPa·s] | viscosity, 298.15 K [mPa·s] | viscosity, 303.15 K [mPa·s]
x2 = 0 | 1056.2 | 1053.2 | 1049.9 | 1046.7 | 1043.5 | 1040.4 | 1037.9 | 51.55 | 40.8 | 32.74
x2 = 0.0749 | – | – | – | – | – | – | – | 46.34 | 36.93 | 29.67
x2 = 0.1625 | 1056.2 | 1053.1 | 1049.7 | 1046.4 | 1043.1 | 1039.9 | 1037.4 | 40.76 | 32.58 | 26.38
x2 = 0.1737 | 1056.2 | 1053.1 | 1049.7 | 1046.4 | 1043.1 | 1040 | 1037.4 | – | – | –
x2 = 0.2386 | 1056.4 | 1053.3 | 1049.9 | 1046.6 | 1043.2 | 1040.1 | 1037.5 | – | – | –
x2 = 0.239 | – | – | – | – | – | – | – | 35.86 | 29.01 | 23.45
x2 = 0.2519 | 1056.5 | 1053.4 | 1049.9 | 1046.6 | 1043.3 | 1040.1 | 1037.5 | – | – | –
x2 = 0.3216 | 1056.6 | 1053.5 | 1050.1 | 1046.8 | 1043.5 | 1040.2 | 1037.6 | – | – | –
x2 = 0.3361 | – | – | – | – | – | – | – | 29.72 | 24.27 | 19.97
x2 = 0.3669 | 1056.4 | 1053.3 | 1050 | 1046.7 | 1043.3 | 1040.1 | 1037.5 | – | – | –
x2 = 0.4223 | – | – | – | – | – | – | – | 24.46 | 20.06 | 16.66
x2 = 0.4238 | 1056 | 1053 | 1049.6 | 1046.4 | 1043.1 | 1039.9 | 1037.3 | – | – | –
x2 = 0.4553 | 1055.6 | 1052.6 | 1049.3 | 1046.1 | 1042.8 | 1039.6 | 1037 | – | – | –
x2 = 0.5075 | 1054.7 | 1051.8 | 1048.5 | 1045.3 | 1042.1 | 1038.9 | 1036.2 | – | – | –
x2 = 0.5134 | – | – | – | – | – | – | – | 19.25 | 15.64 | 13.18
x2 = 0.5501 | 1053.7 | 1050.8 | 1047.6 | 1044.4 | 1041.2 | 1038 | 1035.4 | – | – | –
x2 = 0.6009 | 1052.1 | 1049.2 | 1046.1 | 1042.9 | 1039.7 | 1036.5 | 1033.9 | – | – | –
x2 = 0.6309 | – | – | – | – | – | – | – | 13.16 | 10.59 | 8.95
x2 = 0.653 | 1049.9 | 1047.1 | 1043.9 | 1040.8 | 1037.6 | 1034.4 | 1031.8 | – | – | –
x2 = 0.7146 | 1046.3 | 1043.5 | 1040.4 | 1037.2 | 1034 | 1030.9 | 1028.4 | – | – | –
x2 = 0.7446 | – | – | – | – | – | – | – | 7.99 | 6.43 | 5.46
x2 = 0.7532 | 1043.2 | 1040.5 | 1037.4 | 1034.3 | 1031.1 | 1028.1 | 1025.5 | – | – | –
x2 = 0.804 | 1038.3 | 1035.5 | 1032.6 | 1029.6 | 1026.6 | 1023.5 | 1021.1 | – | – | –
x2 = 0.8508 | 1032.1 | 1029.6 | 1026.9 | 1024.1 | 1021.3 | 1018.4 | 1016.1 | – | – | –
x2 = 0.872 | – | – | – | – | – | – | – | 3.72 | 3.13 | 2.78
x2 = 0.9021 | 1023.5 | 1021.3 | 1018.9 | 1016.6 | 1014 | 1011.4 | 1009.2 | – | – | –
